In patent US9029325B2, “Amylin analogues and pharmaceutical compositions thereof” (Novo Nordisk A/S, priority 2011, dated 2015):
Starred links: 1 amine or outer side, 2 acyl side, 3 side chain; linkers in the order of their positions; H or OH if unused. Positions of bridges follow the written chain, without caps; N, C: chain ends. Residues, ends and D or L forms follow the SMILES beside them. *: point of attachment. C20 diacid = O=C(O)CCCCCCCCCCCCCCCCCCC(=O)*; C18 diacid = O=C(O)CCCCCCCCCCCCCCCCC(=O)*; γGlu = O=C(O)[C@H](CCC(=O)[*:2])N[*:1]

Experiment: Assay (I) efficacy testing on appetite (food intake), ad libitum fed rat model
Type: in vivo, Sprague Dawley (SD) rats
Excerpt: Sprague Dawley (SD) rats from Taconic Europe, Denmark are used for the experiments. The rats have a body weight 200-250 g at the start of experiment. The rats arrive at least 10-14 days before start of experiment to allow acclimatization to experimental settings. During this period the animals are handled at least 2 times. After arrival rats are housed individually for one week in a reversed light/dark phase (meaning that lights are off during daytime and on during nighttime) […]. Since rats are normally active and eat their major part of their daily food intake during the dark period, rats are dosed in the morning right before lights are turned off. This set-up results in the lowest data variation and highst test sensitivity. The experiment is conducted in the rats' home cages and rats have free access to food and water througout the acclimatization period and the experiment period. Each dose of derivative is tested in a group of 5-8 rats. A vehicle group of 6-8 rats is included in each set of testing. Rats are dosed once according to body weight with a 0.01-3 mg/kg solution administered intraperitoneally (ip), orally (po) or subcutaneously (sc). The time of dosing is recorded for each group. After dosing, the rats are returned to their home cages, where they then have access to food and water. The food consumption is recorded individually continuously by on-line registration or manually every hour for 7 hours, and then after 24 h and sometimes 48 h. At the end of the experimental session, the animals are euthanised.
The individual data are recorded in Microsoft excel sheets. Outliers are excluded after applying the Grubbs statistical evaluation test for outliers, and the result is presented graphically using the GraphPad Prism program.

CC[C@H](C)[C@H](NC(=O)[C@@H]1CCCN1C(=O)CNC(=O)[C@H](Cc1ccccc1)NC(=O)[C@H](CC(N)=O)NC(=O)[C@H](CC(N)=O)NC(=O)[C@H](CO)NC(=O)[C@H](CO)NC(=O)[C@H](Cc1c[nH]cn1)NC(=O)[C@H](Cc1c[nH]cn1)NC(=O)[C@H](CC(C)C)NC(=O)[C@H](Cc1ccccc1)NC(=O)[C@H](CCC(=O)O)NC(=O)[C@H](C)NC(=O)[C@H](CC(C)C)NC(=O)[C@H](CCCNC(=N)N)NC(=O)[C@H](CCC(N)=O)NC(=O)[C@@H](NC(=O)[C@H](C)NC(=O)[C@@H]1CSSC[C@H](NC(=O)CC[C@H](NC(=O)CCCCCCCCCCCCCCCCCCC(=O)O)C(=O)O)C(=O)N[C@@H](CC(N)=O)C(=O)N[C@@H]([C@@H](C)O)C(=O)N[C@@H](C)C(=O)N[C@@H]([C@@H](C)O)C(=O)N1)[C@@H](C)O)C(=O)N[C@@H](CC(C)C)C(=O)N1CCC[C@H]1C(=O)N1CCC[C@H]1C(=O)N[C@H](C(=O)N[C@@H](CC(N)=O)C(=O)N[C@H](C(=O)NCC(=O)N[C@@H](CO)C(=O)N[C@@H](CC(N)=O)C(=O)N[C@H](C(=O)N[C@@H](Cc1ccc(O)cc1)C(N)=O)[C@@H](C)O)C(C)C)[C@@H](C)O [compound 28] ({C20 diacid-γGlu}-CNTATCATQRLAEFLHHSSNNFGPILPPTNVGSNTY-NH2; disulfide 1-6 (inferred); C-terminus assumed)
Food intake reduction 0-24 h 3 nmol/kg (%): 39% | Food intake reduction 24-48 h 3 nmol/kg (%): 36%

CC[C@H](C)[C@H](NC(=O)[C@@H]1CCCN1C(=O)CNC(=O)[C@H](Cc1ccccc1)NC(=O)[C@H](CC(N)=O)NC(=O)[C@H](CC(N)=O)NC(=O)[C@H](CO)NC(=O)[C@H](CO)NC(=O)[C@H](Cc1c[nH]cn1)NC(=O)[C@H](Cc1c[nH]cn1)NC(=O)[C@H](CC(C)C)NC(=O)[C@H](Cc1ccccc1)NC(=O)[C@H](CCC(=O)O)NC(=O)[C@H](C)NC(=O)[C@H](CC(C)C)NC(=O)[C@H](CCCNC(=N)N)NC(=O)[C@H](CCC(N)=O)NC(=O)[C@@H](NC(=O)[C@H](C)NC(=O)[C@@H]1CSSC[C@H](NC(=O)[C@H](CCCCN)NC(=O)CC[C@H](NC(=O)CCCCCCCCCCCCCCCCCCC(=O)O)C(=O)O)C(=O)N[C@@H](CC(N)=O)C(=O)N[C@@H]([C@@H](C)O)C(=O)N[C@@H](C)C(=O)N[C@@H]([C@@H](C)O)C(=O)N1)[C@@H](C)O)C(=O)N[C@@H](CC(C)C)C(=O)N1CCC[C@H]1C(=O)N1CCC[C@H]1C(=O)N[C@H](C(=O)N[C@@H](CC(N)=O)C(=O)N[C@H](C(=O)NCC(=O)N[C@@H](CO)C(=O)N[C@@H](Cc1c[nH]cn1)C(=O)N[C@H](C(=O)N[C@@H](Cc1ccc(O)cc1)C(N)=O)[C@@H](C)O)C(C)C)[C@@H](C)O [Example 55, N-alpha-[(S)-4-Carboxy-4-(19-carboxynonadecanoylamino)butyryl]-[Glu14,His17,His 35]-pramlintide] ({C20 diacid-γGlu}-KCNTATCATQRLAEFLHHSSNNFGPILPPTNVGSHTY-NH2; disulfide 2-7 (inferred); C-terminus assumed)
Food intake reduction 0-24 h 3 nmol/kg (%): 58% | Food intake reduction 24-48 h 3 nmol/kg (%): 40% | Food intake reduction 0-24 h 30 nmol/kg (%): 88% | Food intake reduction 24-48 h 30 nmol/kg (%): 90%

CC[C@H](C)[C@H](NC(=O)[C@@H]1CCCN1C(=O)CNC(=O)[C@H](Cc1ccccc1)NC(=O)[C@H](CC(N)=O)NC(=O)[C@H](CC(N)=O)NC(=O)[C@H](CO)NC(=O)[C@H](CO)NC(=O)[C@H](Cc1c[nH]cn1)NC(=O)[C@H](Cc1c[nH]cn1)NC(=O)[C@H](CC(C)C)NC(=O)[C@H](Cc1ccccc1)NC(=O)[C@H](CCC(=O)O)NC(=O)[C@H](C)NC(=O)[C@H](CC(C)C)NC(=O)[C@H](CCCNC(=N)N)NC(=O)[C@H](CCC(N)=O)NC(=O)[C@@H](NC(=O)[C@H](C)NC(=O)[C@@H]1CSSC[C@H](NC(=O)[C@H](Cc2c[nH]cn2)NC(=O)[C@H](Cc2c[nH]cn2)NC(=O)[C@H](Cc2c[nH]cn2)NC(=O)CC[C@H](NC(=O)CCCCCCCCCCCCCCCCCCC(=O)O)C(=O)O)C(=O)N[C@@H](CC(N)=O)C(=O)N[C@@H]([C@@H](C)O)C(=O)N[C@@H](C)C(=O)N[C@@H]([C@@H](C)O)C(=O)N1)[C@@H](C)O)C(=O)N[C@@H](CC(C)C)C(=O)N1CCC[C@H]1C(=O)N1CCC[C@H]1C(=O)N[C@H](C(=O)N[C@@H](CC(N)=O)C(=O)N[C@H](C(=O)NCC(=O)N[C@@H](CO)C(=O)N[C@@H](CC(N)=O)C(=O)N[C@H](C(=O)N[C@@H](Cc1ccc(O)cc1)C(N)=O)[C@@H](C)O)C(C)C)[C@@H](C)O [Example 11, N-alpha-[(S)-4-Carboxy-4-(19-carboxynonadecanoylamino)butyryl]-His-His-[His1,Glu14,His17]-pramlintide] ({C20 diacid-γGlu}-HHHCNTATCATQRLAEFLHHSSNNFGPILPPTNVGSNTY-NH2; disulfide 4-9)
Food intake reduction 0-24 h 30 nmol/kg (%): 87% | Food intake reduction 24-48 h 30 nmol/kg (%): 92%

CC[C@H](C)[C@H](NC(=O)[C@@H]1CCCN1C(=O)CNC(=O)[C@H](Cc1ccccc1)NC(=O)[C@H](CC(N)=O)NC(=O)[C@H](CC(N)=O)NC(=O)[C@H](CO)NC(=O)[C@H](CO)NC(=O)[C@H](Cc1c[nH]cn1)NC(=O)[C@H](CCCNC(=N)N)NC(=O)[C@H](CC(C)C)NC(=O)[C@H](Cc1ccccc1)NC(=O)[C@H](CCC(=O)O)NC(=O)[C@H](C)NC(=O)[C@H](CC(C)C)NC(=O)[C@H](CCCNC(=N)N)NC(=O)[C@H](CCC(N)=O)NC(=O)[C@@H](NC(=O)[C@H](C)NC(=O)[C@@H]1CSSC[C@H](NC(=O)[C@H](CCCCN)NC(=O)[C@H](Cc2c[nH]cn2)NC(=O)CC[C@H](NC(=O)CCCCCCCCCCCCCCCCC(=O)O)C(=O)O)C(=O)N[C@@H](CC(N)=O)C(=O)N[C@@H]([C@@H](C)O)C(=O)N[C@@H](C)C(=O)N[C@@H]([C@@H](C)O)C(=O)N1)[C@@H](C)O)C(=O)N[C@@H](CC(C)C)C(=O)N1CCC[C@H]1C(=O)N1CCC[C@H]1C(=O)N[C@H](C(=O)N[C@@H](CC(N)=O)C(=O)N[C@H](C(=O)NCC(=O)N[C@@H](CO)C(=O)N[C@@H](Cc1c[nH]cn1)C(=O)N[C@H](C(=O)N[C@@H](Cc1ccc(O)cc1)C(N)=O)[C@@H](C)O)C(C)C)[C@@H](C)O [compound 71] ({C18 diacid-γGlu}-HKCNTATCATQRLAEFLRHSSNNFGPILPPTNVGSHTY-NH2; disulfide 3-8 (inferred); C-terminus assumed)
Food intake reduction 0-24 h 3 nmol/kg (%): 10% | Food intake reduction 24-48 h 3 nmol/kg (%): 0%

CC[C@H](C)[C@H](NC(=O)[C@@H]1CCCN1C(=O)CNC(=O)[C@H](Cc1ccccc1)NC(=O)[C@H](CC(N)=O)NC(=O)[C@H](CC(N)=O)NC(=O)[C@H](CO)NC(=O)[C@H](CO)NC(=O)[C@H](Cc1c[nH]cn1)NC(=O)[C@H](Cc1c[nH]cn1)NC(=O)[C@H](CC(C)C)NC(=O)[C@H](Cc1ccccc1)NC(=O)[C@H](CCC(=O)O)NC(=O)[C@H](C)NC(=O)[C@H](CC(C)C)NC(=O)[C@H](CCCNC(=N)N)NC(=O)[C@H](CCC(N)=O)NC(=O)[C@@H](NC(=O)[C@H](C)NC(=O)[C@@H]1CSSC[C@H](NC(=O)[C@H](CCCCN)NC(=O)CC[C@H](NC(=O)CCCCCCCCCCCCCCCCC(=O)O)C(=O)O)C(=O)N[C@@H](CC(N)=O)C(=O)N[C@@H]([C@@H](C)O)C(=O)N[C@@H](C)C(=O)N[C@@H]([C@@H](C)O)C(=O)N1)[C@@H](C)O)C(=O)N[C@@H](CC(C)C)C(=O)N1CCC[C@H]1C(=O)N1CCC[C@H]1C(=O)N[C@H](C(=O)N[C@@H](CC(N)=O)C(=O)N[C@H](C(=O)NCC(=O)N[C@@H](CO)C(=O)N[C@@H](Cc1c[nH]cn1)C(=O)N[C@H](C(=O)N[C@@H](Cc1ccc(O)cc1)C(N)=O)[C@@H](C)O)C(C)C)[C@@H](C)O [Example 59, N-alpha-[(S)-4-Carboxy-4-(17-carboxyheptadecanoylamino)butyryl]-[Glu14,His17,His 35]-pramlintide] ({C18 diacid-γGlu}-KCNTATCATQRLAEFLHHSSNNFGPILPPTNVGSHTY-NH2; disulfide 2-7 (inferred); C-terminus assumed)
Food intake reduction 0-24 h 3 nmol/kg (%): 59% | Food intake reduction 24-48 h 3 nmol/kg (%): 27%

CC[C@H](C)[C@H](NC(=O)[C@@H]1CCCN1C(=O)CNC(=O)[C@H](Cc1ccccc1)NC(=O)[C@H](CC(N)=O)NC(=O)[C@H](CC(N)=O)NC(=O)[C@H](CO)NC(=O)[C@H](CO)NC(=O)[C@H](Cc1c[nH]cn1)NC(=O)[C@H](Cc1c[nH]cn1)NC(=O)[C@H](CC(C)C)NC(=O)[C@H](Cc1ccccc1)NC(=O)[C@H](CCC(=O)O)NC(=O)[C@H](C)NC(=O)[C@H](CC(C)C)NC(=O)[C@H](CCCNC(=N)N)NC(=O)[C@H](CCC(N)=O)NC(=O)[C@@H](NC(=O)[C@H](C)NC(=O)[C@@H]1CSSC[C@H](NC(=O)[C@H](CCCCN)NC(=O)[C@H](CCC(=O)O)NC(=O)CC[C@H](NC(=O)CCCCCCCCCCCCCCCCCCC(=O)O)C(=O)O)C(=O)N[C@@H](CC(N)=O)C(=O)N[C@@H]([C@@H](C)O)C(=O)N[C@@H](C)C(=O)N[C@@H]([C@@H](C)O)C(=O)N1)[C@@H](C)O)C(=O)N[C@@H](CC(C)C)C(=O)N1CCC[C@H]1C(=O)N1CCC[C@H]1C(=O)N[C@H](C(=O)N[C@@H](CC(N)=O)C(=O)N[C@H](C(=O)NCC(=O)N[C@@H](CO)C(=O)N[C@@H](Cc1c[nH]cn1)C(=O)N[C@H](C(=O)N[C@@H](Cc1ccc(O)cc1)C(N)=O)[C@@H](C)O)C(C)C)[C@@H](C)O [compound 56] ({C20 diacid-γGlu}-EKCNTATCATQRLAEFLHHSSNNFGPILPPTNVGSHTY-NH2; disulfide 3-8)
Food intake reduction 0-24 h 3 nmol/kg (%): 46% | Food intake reduction 24-48 h 3 nmol/kg (%): 21%
